pIC50: −log10 of the molar value. Like-named read-outs stand apart in the source and are kept apart here. Peptide text beside a SMILES is read from it.
How the values were obtained:
MRSA (NCTC 12493) [1] = assay: microbe, parasite or virus in culture; type: cell-based; details: MRSA (NCTC 12493)
From the text: (§1) The MIC and MBC assays were used to assess the inhibitory activities of all 5 analogues of R2AW on the growth of planktonic microorganisms. The MIC is the lowest concentration that prevents the viable growth of bacteria. The MBC is the lowest concentration that results in bacterial death. Six microorganisms were used to detect the antimicrobial activity of peptides, including Gram-positive bacteria S. aureus (NCTC 10788), MRSA (NCTC 12493), Enterococcus faecalis (E. faecalis) (NCTC 12697), Gram-negative bacteria E. coli […], Klebsiella pneumoniae (K. pneumoniae) (ATCC 43816), and Pseudomonas aeruginosa (P. aeruginosa) (ATCC 9027). According to the assay described previously, the microorganisms were inoculated at 37 °C overnight and diluted to 5 × 10^5 CFU/mL after reaching the logarithmic growth period. The peptide stock solution at the concentration of 512 × 10^2 μM was prepared and diluted to 100 μM by a 2-fold dilution. One μL of each concentration of peptide solution was incubated with 99 μL of bacterial subculture in the 96-well plate for 18 h at 37 °C. The absorbance was determined at a wavelength of 550 nm using a Synergy HT plate reader (Bio Tek, Washington, DC, USA). […] As for those wells that were clearly visible, 20 μL of the solution was dropped onto the Mueller Hinton agar (MHA) dish and then incubated at 37 °C overnight. The lowest concentration with no colony growth was determined as the MBC.

S. aureus (NCTC 10788) [2] = assay: microbe, parasite or virus in culture; type: cell-based; details: NCTC 10788, 18 h
From the text: as §1

E. faecium (NTCC 12697) [3] = assay: microbe, parasite or virus in culture; type: cell-based; details: NTCC 12697, 18 h
From the text: as §1

[4] = test system: P. aeruginosa (ATCC 9027); type: cell-based, Pseudomonas aeruginosa
Experimental: (§2) As a previous study described in detail, the ability of R2AW and its analogues to inhibit and eradicate the formation of biofilm was investigated. The MBIC is the lowest concentration which inhibits the formation of biofilm. The MBEC is the minimum concentration that eradicates biofilm. Six bacterial strains were used, as described above. Briefly, the bacteria were cultured and then diluted to 5 × 10^5 CFU/mL. In MBIC assays, 1 μL of each concentration of R2AW and its analogues (ranging from 512 × 10^2 μM to 100 μM) was mixed with 99 μL of diluted bacterial suspension in a 96-well plate for 16-20 h at 37 °C. As for MBEC assays, 100 μL of cultured bacteria were seeded in a 96-well plate and incubated on the shaking incubator at 37 °C overnight for biofilm formation. Subsequently, each well was rinsed twice with 100 μL sterile PBS to remove planktonic cells, and then replaced with 100 μL of each concentration (ranging from 512 μM to 1 μM) of peptides. After 24 h incubation, the biofilm was washed twice with 100 μL of PBS and fixed with methanol. Next, the same volume of 0.1% crystal violet solution (Sigma-Aldrich, Gillingham, UK) was added to each well to stain the biofilm. After that, 100 μL of 30% of acetic acid (Sigma-Aldrich, Gillingham, UK) was transferred to each well for dissolution. The solutions were transferred into a new 96-well plate and the absorbances of wells was monitored using a Synergy HT plate reader set to 595 nm.

[5] = test system: K. pneumoniae (ATCC 43816); type: cell-based; details: ATCC 43816, 18 h
From the text: as §1

[6] = test system: P. aeruginosa (ATCC 9027); type: cell-based; details: ATCC 9027, 18 h
From the text: as §1

E. coli (ATCC 8739) [7] = type: cell-based; details: ATCC 8739, 18 h
From the text: as §1

MRSA (NCTC 12493) [8] = type: cell-based, methicillin-resistant Staphylococcus aureus
Experimental: as §2

E. faecium (NTCC 12697) [9] = type: cell-based
Experimental: as §2

Haemolysis assay = type: cell-based, horse
Experimental: The haemolytic activity of R2AW and its five designed analogues on mammalian erythrocytes was evaluated using 2% defibrinated horse blood (TCS Biosciences Ltd., Buckingham, UK) as per a previous report. Two mL of fresh horse blood was transferred into a 50 mL tube and then washed with sterilised PBS. The supernatant was removed after centrifuging (930× g, 5 min). The centrifugation procedure was repeated until the supernatant was clear. After washing, the red blood cell pellet was diluted with PBS to achieve a 4% (v/v) erythrocyte suspension. The concentrations of R2AW and its designed derivatives were prepared from 512 μM to 2 μM by two-fold dilution in sterilised PBS. One hundred µL of red blood cell suspension was added into a 1.5 mL tube treated with the same volume of each concentration of peptide and incubated at 37 °C for 2 h. The red blood cell suspensions treated with 0.2% Triton X-100 and with PBS were regarded as positive control and negative control. After centrifugation at 930× g for 10 min, 100 μL of suspension was transferred to a 96-well plate, and the absorbance was obtained by use of a Synergy HT plate reader. The degree of haemolysis could be calculated using the following formula: Haemolysis = (absorbance (experimental groups) − absorbance (negative control))/(absorbance (positive control) − absorbance (negative control)) × 100%.

[10] = test system: K. pneumoniae (ATCC 43816); type: cell-based, Klebsiella pneumoniae
Experimental: as §2

S. aureus (NCTC 10788) [11] = type: cell-based, Staphylococcus aureus
Experimental: as §2

H838 = type: cell-based, human; details: 24 h
Experimental: (§3) Five human cancer cell lines of non-small-cell lung cancer H838, human prostate carcinoma PC-3, human neuronal glioblastoma U251MG, human breast cancer cell MCF-7, and colorectal carcinoma HCT116 were used to detect the antiproliferative abilities of R2AW and its five analogues. According to the procedures in a previous article, cells (8000 cells/well) were seeded into the 96-well tissue culture plates and incubated at 37 °C with 5% CO2 overnight. The solutions of R2AW and its analogues at concentrations of 10^−4 M to 10^−9 M were prepared in the serum-free medium. Next, cells in each well were treated with 100 μL of each peptide solution for 24 h. Subsequently, 10 μL of 5 mg/mL MTT (3-(4, 5-Dimethylthiazol-2-yl-)-2, 5-Diphehyltetrazolium Bromide) was added to each well followed by 37 °C incubation for 2 h. After that, the liquid in each well was removed and 100 μL of DMSO was added to dissolve the purple formazan. The plate was placed on a shaking incubator for 10 min, and the absorbance was detected at 550 nm using a Synergy HT plate reader (Biotech, Minneapolis, MN, USA).

HCT116 = type: cell-based, human; details: 24 h
Experimental: as §3

PC-3 = type: cell-based, human; details: 24 h
Experimental: as §3

U251MG = type: cell-based, human; details: 24 h
Experimental: as §3

MCF-7 = type: cell-based, human; details: 24 h
Experimental: as §3

E. coli (ATCC 8739) [12] = type: cell-based, Escherichia coli
Experimental: as §2

Row | SMILES | MBC (MRSA (NCTC 12493) [1]) [µg/mL] | MIC (MRSA (NCTC 12493) [1]) [µg/mL] | MBC (S. aureus (NCTC 10788) [2]) [µg/mL] | MIC (S. aureus (NCTC 10788) [2]) | MBC (E. faecium (NTCC 12697) [3]) [µg/mL] | MBEC [4] [µM] | MBIC [4] [µM] | MBC [5] [µg/mL] | MIC [5] [µg/mL] | MBC [6] [µg/mL] | MIC [6] [µg/mL] | MBC (E. coli (ATCC 8739) [7]) [µg/mL] | MIC (E. coli (ATCC 8739) [7]) | MBEC (E. faecium (NTCC 12697) [9]) [µM] | MBIC (E. faecium (NTCC 12697) [9]) [µM] | MBEC [10] [µM] | MBIC [10] [µM] | MBEC (S. aureus (NCTC 10788) [11]) [µM] | MBIC (S. aureus (NCTC 10788) [11]) [µM] | pIC50 (H838) | further results
1 | CC[C@H](C)[C@H](NC(=O)[C@H](CCCCN)NC(=O)[C@H](CO)NC(=O)[C@H](CCCCN)NC(=O)[C@H](CC(C)C)NC(=O)[C@H](CCCCN)NC(=O)[C@H](CC(=O)O)NC(=O)[C@H](CC(C)C)NC(=O)[C@H](CC(C)C)NC(=O)[C@@H](NC(=O)[C@H](C)NC(=O)[C@H](C)NC(=O)[C@@H](NC(=O)[C@H](CC(N)=O)NC(=O)[C@H](CCCCN)NC(=O)[C@H](C)NC(=O)[C@@H](NC(=O)[C@H](CC(N)=O)NC(=O)[C@H](CCCCN)NC(=O)[C@H](C)NC(=O)[C@@H](NC(=O)[C@H](CC(=O)O)NC(=O)[C@H](CCSC)NC(=O)[C@H](Cc1ccccc1)NC(=O)CN)[C@@H](C)O)C(C)C)C(C)C)[C@@H](C)O)C(=O)N[C@H](C(=O)NCC(=O)NCC(=O)N[C@@H](CO)C(=O)O)[C@@H](C)O [[Ser^23,29]R2AW] (H-GFMDTAKNVAKNVAATLLDKLKSKITGGS-OH) | 1526 | 763 | 191 | 64 µM | 1526 | >512 | >512 | 1526 | 763 | > 1526 | 1526 | 381 | 64 µM | >512 | >512 | >512 | >512 | > 512 | 128 | 4.71 | MBEC (MRSA (NCTC 12493) [8]; MRSA (NCTC 12493)): > 512 µM; MBIC (MRSA (NCTC 12493) [8]; MRSA (NCTC 12493)): 256 µM; hemolysis at 2 h (Haemolysis assay; horse erythrocytes (washed red blood cell suspension), horse erythrocytes, up to 256 μM): ~10%; pIC50 (HCT116): 4.50; pIC50 (PC-3): 4.76; pIC50 (U251MG): 4.43; pIC50 (MCF-7): 4.20; MBEC (E. coli (ATCC 8739) [12]): 512 µM; MBIC (E. coli (ATCC 8739) [12]): 128 µM
2 | CSCC[C@H](NC(=O)[C@H](Cc1ccccc1)NC(=O)CN)C(=O)N[C@@H](CCCCN)C(=O)N[C@H](C(=O)N[C@@H](Cc1c[nH]c2ccccc12)C(=O)N[C@@H](CCCCN)C(=O)N[C@@H](CC(N)=O)C(=O)N[C@H](C(=O)N[C@@H](Cc1c[nH]c2ccccc12)C(=O)N[C@@H](CCCCN)C(=O)N[C@@H](CC(N)=O)C(=O)N[C@H](C(=O)N[C@@H](C)C(=O)N[C@@H](C)C(=O)N[C@H](C(=O)N[C@@H](CC(C)C)C(=O)N[C@@H](CC(C)C)C(=O)N[C@@H](CCCCN)C(=O)N[C@@H](CC(C)C)C(=O)N[C@@H](CC(C)C)C(=O)N[C@@H](CCCCN)C(N)=O)[C@@H](C)O)C(C)C)C(C)C)[C@@H](C)O [[Trp^6,10]R2AW(1-22)-NH2] (H-GFMKTWKNVWKNVAATLLKLLK-NH2; N-terminus assumed) | 20.7 | 10.4 | 20.7 | 10.4 µg/mL | 41.4 | 512 | 32 | 82.8 | 41.4 | 166 | 82.8 | 41.4 | 20.7 µg/mL | > 512 | 8 | 256 | 16 | 512 | 8 | 5.47 | MIC (E. faecium (NTCC 12697) [3]): 20.7 µg/mL; MBEC (MRSA (NCTC 12493) [8]; NCTC 12493): > 512 µM; MBIC (MRSA (NCTC 12493) [8]; NCTC 12493): 8 µM; hemolysis at 2 h, 2 µM (Haemolysis assay; horse): ~20%; pIC50 (HCT116): 5.27; pIC50 (PC-3): 5.76; pIC50 (U251MG): 5.47; pIC50 (MCF-7): 5.27; MBEC (E. coli (ATCC 8739) [12]): 256 µM; MBIC (E. coli (ATCC 8739) [12]): 4 µM

— paper PMC10812557, “Progressive Design of a Ranatuerin-2 Peptide from Amolops wuyiensis: Enhancement of Bioactivity and In Vivo Efficacy” (Antibiotics, 2023)
